Measured values: patent publication US20240285571A1, “METHODS OF TREATING BONE INFECTIONS” (MICROBION CORPORATION, priority 2020, published 2024)
Converted amounts (≈) assume the structure as drawn. Where two headings read alike, the source gives them in different places.

Assays:
Type in all cases: cell-based
[1] = system: Escherichia coli; test: Broth microdilution MIC (Example 6); conditions: Escherichia coli, read-out: MIC
Method in brief: (§1)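 Activity was measured by CLSI broth microdilution using 2-fold serial dilutions and an inoculum of about 5×10^5 CFU/mL. Plates were incubated at 35 °C for 16 to 20 hr. The MIC is the lowest drug concentration that prevented visible growth.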

[2] = system: Pseudomonas aeruginosa; test: Broth microdilution MIC (Example 6); conditions: Pseudomonas aeruginosa, read-out: MIC
Method in brief: as §1

[3] = system: Klebsiella pneumoniae; test: Broth microdilution MIC (Example 6); conditions: Klebsiella pneumoniae, read-out: MIC
Method in brief: as §1

[4] = system: relevant ATCC QC organisms; test: Broth microdilution MIC, QC (Example 6); conditions: read-out: MIC
Method in brief: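 QC strains were tested per CLSI broth microdilution in cation-adjusted Mueller Hinton broth, with Ca2+ supplemented for daptomycin, at about 5×10^5 CFU/mL. Incubation was at 35° C for 16–20 hr, or 24 hr for vancomycin against S. aureus. The MIC was the lowest concentration inhibiting visible growth.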

[5] = system: Acinetobacter baumannii; test: Broth microdilution MIC (Example 6); conditions: Acinetobacter baumannii, read-out: MIC
Method in brief: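 CLSI broth microdilution in cation-adjusted Mueller Hinton broth, test agents 0.06-64 μg/mL from DMSO stocks, inoculum approx. 5×10^5 CFU/mL. Incubation 35° C for 16–20 hr; MIC taken as lowest concentration inhibiting visible growth.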

[6] = ATCC35218, E. coli ATCC 35218, ESBL
[7] = ATCCBAA2471, E. coli ATCC BAA-2471, NDM
[8] = P. aeruginosa isolate CDC 230, β-lactamase type VIM/OXA
[9] = P. aeruginosa isolate CDC 231, β-lactamase type KPC/OXA
[10] = P. aeruginosa isolate CDC 241, β-lactamase type IMP/OXA
[11] = P. aeruginosa isolate CDC 246, β-lactamase type NDM/OXA
[12] = P. aeruginosa isolate CDC 250, β-lactamase type NDM/OXA
[13] = P. aeruginosa isolate CDC 356, β-lactamase type KPC
[14] = P. aeruginosa isolate CDC 439, β-lactamase type IMP
[15] = P. aeruginosa isolate CDC 444, β-lactamase type VIM
[16] = P. aeruginosa isolate CDC 457, β-lactamase type VIM
[17] = P. aeruginosa isolate CDC 516, β-lactamase type KPC/AmpC
[18] = P. aeruginosa isolate CDC 518, β-lactamase type KPC/AmpC
[19] = ATCCBAA1705, K. pneumoniae ATCC BAA-1705, ESBL/KPC
[20] = K. pneumoniae CDC 113, ESBL/KPC
[21] = K. pneumoniae CDC 115, ESBL/KPC
[22] = K. pneumoniae CDC 120, ESBL/KPC
[23] = K. pneumoniae CDC 126, ESBL/KPC
[24] = K. pneumoniae CDC 129, ESBL/KPC
[25] = K. pneumoniae CDC 135, ESBL/VIM
[26] = K. pneumoniae CDC 138, ESBL/NDM
[27] = K. pneumoniae CDC 158, ESBL/NDM/OXA
[28] = Escherichia coli, ATCC25922, E. coli ATCC 25922
[29] = Escherichia coli, ATCC35218, E. coli ATCC 35218
[30] = Klebsiella pneumoniae, ATCCBAA1705, K. pneumoniae ATCC BAA-1705
[31] = Pseudomonas aeruginosa, ATCC27853, P. aeruginosa ATCC 27853
[32] = A. baumannii isolate CDC 273, β-lactamase type ESBL/OXA
[33] = A. baumannii isolate CDC 274, β-lactamase type ESBL/OXA
[34] = A. baumannii isolate CDC 275, β-lactamase type ESBL/OXA
[35] = A. baumannii isolate CDC 277, β-lactamase type ESBL/OXA
[36] = A. baumannii isolate CDC 284, β-lactamase type ESBL/OXA
[37] = A. baumannii isolate CDC 307, β-lactamase type OXA
[38] = A. baumannii isolate CDC 308, β-lactamase type ESBL/OXA
[39] = A. baumannii isolate CDC 311, β-lactamase type OXA
[40] = A. baumannii isolate CDC 312, β-lactamase type OXA
[41] = A. baumannii isolate CDC 313, β-lactamase type ESBL/OXA
[42] = NCTC13304, A. baumannii isolate NCTC 13304, β-lactamase type OXA

With `C[C@H]1COc2c(N3CCN(C)CC3)c(F)cc3c(=O)c(C(=O)O)cn1c23` [Levofloxacin] as the compound, how does the MIC [1, 6] read?
Its MIC is at most 0.008 µg/mL.

And the MIC [1, 7]?
The MIC was over 8 µg/mL.

And the MIC ([1]; E. coli CDC 114, ESBL/KPC)?
Its MIC is 4 µg/mL (≈ 11.1 µM).

What about the MIC ([1]; E. coli CDC 118, ESBL/NDM) of the same compound?
Its MIC is 8 µg/mL (≈ 22.1 µM).

What about the MIC ([1]; E. coli CDC 435, NDM) of the same compound?
Its MIC is over 8 µg/mL.

And the MIC ([1]; E. coli CDC 451, KPC)?
Its MIC is over 8 µg/mL.

And the MIC ([1]; E. coli CDC 503, ESBL/NDM)?
The MIC was over 8 µg/mL.

And the MIC ([1]; E. coli MMX 5745, KPC)?
Its MIC is 8 µg/mL (≈ 22.1 µM).

And the MIC ([1]; E. coli MMX 5755, ESBL)?
The MIC was 8 µg/mL (≈ 22.1 µM).

What about the MIC ([1]; E. coli MMX 5756, ESBL) of the same compound?
The MIC was 4 µg/mL (≈ 11.1 µM).

And the MIC ([1]; E. coli MMX 5758, ESBL)?
The MIC was 8 µg/mL (≈ 22.1 µM).

And the MIC [2, 8]?
The MIC was 8 µg/mL (≈ 22.1 µM).

What about the MIC [2, 9] of the same compound?
Its MIC is over 8 µg/mL.

And the MIC [2, 10]?
Its MIC is 8 µg/mL (≈ 22.1 µM).

What about the MIC [2, 11] of the same compound?
Its MIC is over 8 µg/mL.

What about the MIC [2, 12] of the same compound?
Its MIC is over 8 µg/mL.

What about the MIC [2, 13] of the same compound?
The MIC was 0.12 µg/mL (≈ 0.332 µM).

What about the MIC [2, 14] of the same compound?
Its MIC is 8 µg/mL (≈ 22.1 µM).

And the MIC [2, 15]?
The MIC was 8 µg/mL (≈ 22.1 µM).

And the MIC [2, 16]?
The MIC was over 8 µg/mL.

What about the MIC [2, 17] of the same compound?
The MIC was 0.25 µg/mL (≈ 0.692 µM).

What about the MIC [2, 18] of the same compound?
Its MIC is over 8 µg/mL.

And the MIC [3, 19]?
The MIC was over 8 µg/mL.

And the MIC ([3]; K. pneumoniae CDC 112, KPC)?
The MIC was 4 µg/mL (≈ 11.1 µM).

And the MIC [3, 20]?
Its MIC is 4 µg/mL (≈ 11.1 µM).

And the MIC [3, 21]?
The MIC was over 8 µg/mL.

And the MIC [3, 22]?
Its MIC is over 8 µg/mL.

What about the MIC [3, 23] of the same compound?
The MIC was 0.015 µg/mL (≈ 0.0415 µM).

What about the MIC [3, 24] of the same compound?
The MIC was over 8 µg/mL.

What about the MIC [3, 25] of the same compound?
Its MIC is over 8 µg/mL.

And the MIC [3, 26]?
Its MIC is over 8 µg/mL.

What about the MIC [3, 27] of the same compound?
Its MIC is 4 µg/mL (≈ 11.1 µM).

What about the MIC ([3]; K. pneumoniae MMX 9029, ESBL) of the same compound?
The MIC was 0.12 µg/mL (≈ 0.332 µM).

What about the MIC [4, 28] of the same compound?
The MIC was at most 0.008 µg/mL.

And the MIC [4, 29]?
The MIC was at most 0.008 µg/mL.

What about the MIC [4, 30] of the same compound?
Its MIC is over 8 µg/mL.

What about the MIC [4, 31] of the same compound?
The MIC was 0.5 µg/mL.

And the MIC ([4]; Staphylococcus aureus, ATCC29213, S. aureus ATCC 29213)?
The MIC was 0.06 µg/mL.

What about the MIC [5, 32] of the same compound?
Its MIC is over 8 µg/mL.

And the MIC [5, 33]?
The MIC was 8 µg/mL.

What about the MIC [5, 34] of the same compound?
Its MIC is 4 µg/mL.

And the MIC [5, 35]?
Its MIC is 8 µg/mL.

And the MIC [5, 36]?
Its MIC is 8 µg/mL.

What about the MIC [5, 37] of the same compound?
The MIC was 8 µg/mL.

And the MIC [5, 38]?
The MIC was 4 µg/mL.

What about the MIC [5, 39] of the same compound?
Its MIC is 2 µg/mL.

And the MIC [5, 40]?
The MIC was 2 µg/mL.

And the MIC [5, 41]?
The MIC was 2 µg/mL.

And the MIC [5, 42]?
The MIC was 1 µg/mL.

Which MIC [1, 6] does the source give for `CC(C)(O/N=C(\C(=O)N[C@@H]1C(=O)N2C(C(=O)[O-])=C(C[n+]3ccccc3)CS[C@H]12)c1csc(N)n1)C(=O)O` [Ceftazidime] here?
Its MIC is 0.12 µg/mL (≈ 0.22 µM).

What about the MIC [1, 7] of the same compound?
Its MIC is over 64 µg/mL.

And the MIC ([1]; E. coli CDC 114, ESBL/KPC)?
The MIC was over 64 µg/mL.

And the MIC ([1]; E. coli CDC 118, ESBL/NDM)?
The MIC was over 64 µg/mL.

What about the MIC ([1]; E. coli CDC 435, NDM) of the same compound?
Its MIC is over 64 µg/mL.

What about the MIC ([1]; E. coli CDC 451, KPC) of the same compound?
The MIC was 64 µg/mL (≈ 117 µM).

And the MIC ([1]; E. coli CDC 503, ESBL/NDM)?
Its MIC is over 64 µg/mL.

And the MIC ([1]; E. coli MMX 5745, KPC)?
The MIC was 32 µg/mL (≈ 58.5 µM).

What about the MIC ([1]; E. coli MMX 5755, ESBL) of the same compound?
The MIC was over 64 µg/mL.

What about the MIC ([1]; E. coli MMX 5756, ESBL) of the same compound?
The MIC was over 64 µg/mL.

What about the MIC ([1]; E. coli MMX 5758, ESBL) of the same compound?
The MIC was 16 µg/mL (≈ 29.3 µM).

And the MIC [2, 8]?
The MIC was 64 µg/mL (≈ 117 µM).

And the MIC [2, 9]?
Its MIC is over 64 µg/mL.

What about the MIC [2, 10] of the same compound?
Its MIC is over 64 µg/mL.

And the MIC [2, 11]?
The MIC was over 64 µg/mL.

What about the MIC [2, 12] of the same compound?
Its MIC is over 64 µg/mL.

What about the MIC [2, 13] of the same compound?
The MIC was 64 µg/mL (≈ 117 µM).

What about the MIC [2, 14] of the same compound?
Its MIC is over 64 µg/mL.

And the MIC [2, 15]?
Its MIC is 32 µg/mL (≈ 58.5 µM).

What about the MIC [2, 16] of the same compound?
Its MIC is over 64 µg/mL.

And the MIC [2, 17]?
Its MIC is 64 µg/mL (≈ 117 µM).

What about the MIC [2, 18] of the same compound?
Its MIC is 32 µg/mL (≈ 58.5 µM).

What about the MIC [3, 19] of the same compound?
Its MIC is over 64 µg/mL.

And the MIC ([3]; K. pneumoniae CDC 112, KPC)?
The MIC was over 64 µg/mL.

And the MIC [3, 20]?
The MIC was over 64 µg/mL.

What about the MIC [3, 21] of the same compound?
Its MIC is over 64 µg/mL.

And the MIC [3, 22]?
The MIC was over 64 µg/mL.

What about the MIC [3, 23] of the same compound?
Its MIC is 4 µg/mL (≈ 7.32 µM).

And the MIC [3, 24]?
The MIC was over 64 µg/mL.

And the MIC [3, 25]?
Its MIC is over 64 µg/mL.

And the MIC [3, 26]?
Its MIC is over 64 µg/mL.

And the MIC [3, 27]?
The MIC was over 64 µg/mL.

And the MIC ([3]; K. pneumoniae MMX 9029, ESBL)?
The MIC was 4 µg/mL (≈ 7.32 µM).

And the MIC [4, 28]?
Its MIC is 0.25 µg/mL.

And the MIC [4, 29]?
The MIC was 0.12 µg/mL.

And the MIC [4, 30]?
The MIC was over 64 µg/mL.

What about the MIC [4, 31] of the same compound?
Its MIC is 2 µg/mL.

What about the MIC [5, 32] of the same compound?
The MIC was 64 µg/mL.

What about the MIC [5, 33] of the same compound?
Its MIC is over 64 µg/mL.

What about the MIC [5, 34] of the same compound?
The MIC was over 64 µg/mL.

And the MIC [5, 35]?
The MIC was over 64 µg/mL.

What about the MIC [5, 36] of the same compound?
The MIC was 64 µg/mL.

What about the MIC [5, 37] of the same compound?
The MIC was 64 µg/mL.

What about the MIC [5, 38] of the same compound?
Its MIC is 64 µg/mL.

And the MIC [5, 39]?
The MIC was over 64 µg/mL.

And the MIC [5, 40]?
The MIC was over 64 µg/mL.

What about the MIC [5, 41] of the same compound?
The MIC was over 64 µg/mL.

And the MIC [5, 42]?
Its MIC is over 64 µg/mL.
